Experiment [1] addresses T1, KPC-2 (Klebsiella pneumoniae, UniProt Q9F663). Nature of the experiment: k2/K inactivation constant, reporter substrate method. The format is biochemical. As for the experimental part:
Inactivation kinetic parameters were determined by using the reporter substrate method for the slow tight-binding inhibitor kinetic scheme ([38]). E + I ↔K EI ↔k−2k2 EI*
(§1) Protein was quickly mixed with 100 μM nitrocefin and various concentrations of BLI in reaction buffer, and the absorbance at 490 nm was measured immediately every 2 s for 180 s on a SpectraMax plate reader (Molecular Devices, San Jose, CA) at 37°C. The resulting progression curves of OD490 versus time at various BLI concentrations were imported into Prism software (GraphPad, San Diego, CA), and pseudo first-order rate constants kobs were calculated by using the following equation: P = Vs ⋅ (1 – e^–^k^obs ⋅ ^t)/kobs, where Vs is the enzyme NCF cleavage rate in the absence of BLI.

The test system of a further experiment is ADC-7, KPC-2, and SHV-1. Details: method as in PMID 26729491, PMID 26729496. The conditions noted are these: cited from earlier work.
In experiment [2] the target is T1, KPC-2. Nature of the experiment: Stability of inhibitor after incubation with KPC-2, LC/MS. The experiment is classed as biochemical. Particulars: for degradation/hydrolysis of inhibitor by KPC-2: 1 µM inhibitor and 1 µM KPC-2, 37 °C, reaction buffer, 18 hours, LC/MS.
The target of experiment [3] is T2, SHV-12 (Klebsiella pneumoniae, UniProt P0AD64, E235K/G234S/L31Q).
T2 construct: His tag; purchased Emerald Biostructures (Bainbridge Island, WA)
Nature of the experiment: Inactivation kinetic profile, reporter substrate method. The format is biochemical. The conditions noted are these: precluded k2/K calculation. The method, then:
as §1

For the next experiment, the target named is TEM-43 (Escherichia coli, UniProt P62593, E102K/M180T/R162H). Described as above. The experiment is classed as biochemical. Particulars: precluded k2/K calculation. As for the experimental part:
as §1

For experiment [4], the target named is T3, AmpC (Enterobacter cloacae, UniProt P05364).
T3 construct: His tag; purchased Emerald Biostructures (Bainbridge Island, WA)
Nature of the experiment: koff of enzyme activity recovery, jump dilution method. The experiment is classed as biochemical. Particulars: calculated using k2/K and koff. As for the experimental part:
(§2) After appropriate dilution, 100 μM NCF was added to the reaction mixture, and absorbance at 490 nm was recorded every 10 s using a plate reader. The reaction without the addition of BLI was also recorded and used to calculate uninhibited enzyme velocity Vs.
(§3) Purified enzyme at 1 μM in reaction buffer was mixed with BLIs at an 8-fold higher concentration than its stoichiometry ratio (determined in preliminary stoichiometry experiments). After 30 min incubation at 37°C, the reaction mixture was diluted from 100- to 30,000-fold depending on the enzyme in reaction buffer, and 100 μl of diluted enzyme was mixed with 100 μl of 400 μM NCF in reaction buffer. The absorbance at 490 nm was recorded every minute during 4 h at 37°C.

In experiment [5] the target is T1, KPC-2. Described as above. The format is biochemical. The conditions noted are these: calculated using k2/K and koff. As for the experimental part: as §2, §3
The target in experiment [6] is T4, KPC-3 (Klebsiella pneumoniae, UniProt Q9F663, H272Y). Described as above. The experiment is classed as biochemical. The method, then: as §2, §3
Experiment [7] has as its target T5, BKC-1 (Klebsiella pneumoniae, UniProt A0A0F6QEY8). The description is as above. The conditions noted are these: calculated using k2/K and koff. The format is biochemical. As for the experimental part:
as §2, §3

Experiment [8] deals with T6, CTX-M-15 (Escherichia coli, UniProt Q9EXV5).
T6 construct: His tag; purchased Emerald Biostructures (Bainbridge Island, WA)
The experiment is described as above. The conditions noted are these: calculated using k2/K and koff. The format is biochemical. The method, then:
as §2, §3

Experiment [9] addresses T7, FRI-1 (Enterobacter cloacae, UniProt A0A0M5L4T8). The description is as above. Particulars: calculated using k2/K and koff. The format is biochemical. The method, then:
as §2, §3

Experiment [10] addresses T8, SME-2 (Serratia marcescens, UniProt P52682, V207Q). Put plainly: Kiapp determination with nitrocefin (method of Waley). The experiment is classed as biochemical, S. marcescens. Particulars: recombinant His-tagged enzyme; 10 min incubation at 37°C; 50 μM NCF. The method, then: (§4) The protein was mixed with various concentrations of inhibitors in 50 mM sodium phosphate (pH 7.0) and 0.1 mg/ml of bovine serum albumin buffer (reaction buffer), followed by incubation for 10 min at 37°C. Next, 50 μM nitrocefin (NCF; 10 μM for SHV-12 and 25 μM for BKC-1) was added, and substrate cleavage profiles were recorded at 490 nm every 10 s for 10 min. […] Kiapp values were calculated by method of Waley ([24]).

Experiment [11] addresses T8, SME-2. Nature of the experiment: koff of enzyme activity recovery, jump dilution method. The format is biochemical, S. marcescens. As for the experimental part:
as §2, §3

For experiment [12], the target named is T3, AmpC. Nature of the experiment: Kiapp determination with nitrocefin (method of Waley). The experiment is classed as biochemical. The conditions noted are these: recombinant His-tagged enzyme; 10 min incubation at 37°C; 50 μM NCF. As for the experimental part: as §4
The target of experiment [13] is T2, SHV-12. The experiment is described as above. The format is biochemical. Particulars: recombinant His-tagged enzyme; 10 min incubation at 37°C; 10 μM NCF. The method, then:
as §4

Experiment [14] concerns the target T1, KPC-2. The experiment is described as above. The format is biochemical. Particulars: recombinant His-tagged enzyme; 10 min incubation at 37°C; 50 μM NCF. The method, then:
as §4

The target of experiment [15] is T4, KPC-3. The experiment is described as above. The experiment is classed as biochemical. The conditions noted are these: recombinant His-tagged enzyme; 10 min incubation at 37°C; 50 μM NCF. As for the experimental part: as §4
The target of the next experiment is T9, NDM-1 (Klebsiella pneumoniae, UniProt C7C422).
T9 construct: His tag; purchased Emerald Biostructures (Bainbridge Island, WA)
The description is as above. The format is biochemical. As for the experimental part:
as §4

For a further experiment, the target named is OXA-23 (Acinetobacter baumannii, UniProt Q9L4P2). The experiment is described as above. Particulars: recombinant His-tagged enzyme; 10 min incubation at 37°C; 50 μM NCF. The experiment is classed as biochemical. As for the experimental part:
as §4

Experiment [16] concerns the target T5, BKC-1. Described as above. The conditions noted are these: recombinant His-tagged enzyme; 10 min incubation at 37°C; 25 μM NCF. The experiment is classed as biochemical. As for the experimental part:
as §4

The target in experiment [17] is T6, CTX-M-15. The description is as above. The format is biochemical. Particulars: recombinant His-tagged enzyme; 10 min incubation at 37°C; 50 μM NCF. As for the experimental part:
as §4

Experiment [18] deals with T7, FRI-1. Described as above. The format is biochemical. The conditions noted are these: recombinant His-tagged enzyme; 10 min incubation at 37°C; 50 μM NCF. The method, then: as §4
For another experiment, the target named is T10, CTX-M-14 (Escherichia coli, UniProt Q9L5C7).
T10 construct: His tag; purchased Emerald Biostructures (Bainbridge Island, WA)
The experiment is described as above. The experiment is classed as biochemical. The conditions noted are these: recombinant His-tagged enzyme; 10 min incubation at 37°C; 50 μM NCF. As for the experimental part:
as §4

Another experiment concerns the target T11, OXA-48 (Klebsiella pneumoniae, UniProt Q6XEC0).
T11 construct: His tag; purchased Emerald Biostructures (Bainbridge Island, WA)
The experiment is described as above. The format is biochemical. Particulars: recombinant His-tagged enzyme; 10 min incubation at 37°C; 50 μM NCF. The method, then:
as §4

The target in the next experiment is T12, VIM-1 (Pseudomonas aeruginosa, UniProt A0A0F7KYQ8).
T12 construct: His tag; purchased Emerald Biostructures (Bainbridge Island, WA)
Described as above. The experiment is classed as biochemical. As for the experimental part:
as §4

The mark [19] stands for this setting: 1.2 nM KPC-2, 100 μM NCF reporter substrate.
Setting [20] is: recombinant His-tagged enzyme, 10 min incubation at 37°C, 50 μM NCF.

Read-outs that look alike come from different tables or passages of the source.

Regarding `O=Cc1ccccc1B(O)O` [2-formylphenylboronic acid], at KPC-2 [1] (setting [19]), the “KPC-2 inactivation kinetic profile” value is listed as “linear KPC-2 inactivation profile”.

Consider `O=C(Cc1cccs1)N[C@@H](Cn1cc(C(=O)O)nn1)B(O)O` [S02030], for which the “potency (in words)” value with ADC-7, KPC-2, and SHV-1 was “nanomolar potency”.

Consider `Cc1cccc(B(O)O)c1` [m-tolylboronic acid], for which the “KPC-2 inactivation kinetic profile” value at KPC-2 [1] is recorded as “linear KPC-2 inactivation profile”.

In the case of `C[C@]1(Cn2ccnn2)[C@H](C(=O)O)N2C(=O)C[C@H]2S1(=O)=O` [tazobactam, reference compound], the “KPC-2 inactivation kinetic profile” value on KPC-2 [1] (setting [19]) is reported as “progressive enzyme activity inactivation”. The “degradation of inhibitor by KPC-2” value at KPC-2 [2] (same conditions, in 1 hour (data not shown)) is recorded as “completely degraded”.

On to `O=C(O)C[C@@H]1CC[C@H](NC(=O)Cc2cccs2)B(O)O1` [vaborbactam], for which the inactivation kinetic profile result at SHV-12 [3] and at TEM-43 was “linear inactivation profiles” each time. Moreover, the Kd (as a rule, a measure of binding affinity in units of concentration) on AmpC [4] is 220 nM; at KPC-2 [5], 7.8 nM; at KPC-3 [6] it was 4.4 nM; on BKC-1 [7] it was 33 nM; at CTX-M-15 [8] it was 40 nM; at FRI-1 [9], 509 nM. Moreover, the affinity at SME-2 [11], expressed as Kd, was 47 nM. The Ki was 42 ± 5 nM on SME-2 [10]; 35 ± 15 nM on AmpC [12]; 21 ± 4 nM on SHV-12 [13]; 56 ± 15 nM at KPC-2 [14]; 50 ± 16 nM at KPC-3 [15]; more than 160 µM at NDM-1 (setting [20]). The Ki turned out to be 66 ± 11 µM at OXA-23; 18 ± 2 nM on BKC-1 [16]; 30 ± 4 nM at CTX-M-15 [17]; 170 ± 60 nM on FRI-1 [18]; 33 ± 13 nM at CTX-M-14; 14 ± 5 µM at OXA-48. At VIM-1 (setting [20]), the Ki is more than 160 µM. The “inhibition of enzyme (in words)” value at NDM-1 (class B metalloenzyme) and against VIM-1 (class B metalloenzyme) was “No inhibition” in each case. For the same compound, at KPC-2 [1] (setting [19]), the “KPC-2 inactivation kinetic profile” value was “slow onset of inhibition and nonlinear reaction profiles”. Besides, the “degradation/hydrolysis of inhibitor by KPC-2” value at KPC-2 [2] is given as “no degradation”; at KPC-2 [2] (listed as Vaborbactam) it was “not hydrolyzed”.

The values above are taken from article PMC6985712 (Antimicrobial Agents and Chemotherapy, 2020).
